In the supplement of paper PMC10307832:

Key:
Experiment in all cases: relative viability (nuclei count vs DMSO), 5 days (fraction); higher = more cells survive
201T = test system: 201T
Outline: (§1)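 Lung cancer cell lines, seeded in 1536-well plates, were treated the following day by pin tool with a single drug or with five library-drug doses (not always all listed) in √10 steps on top of a fixed anchor-drug dose. Cells were fixed and nuclei stained in one step after 5 days, and nuclei were counted. Relative viability is the nuclei count for treated wells divided by that for vehicle wells, reported as medians of duplicate plates.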

BEN = test system: BEN
Outline: as §1

CAL-12T = test system: CAL-12T
Outline: as §1

ChaGo-K-1 = test system: ChaGo-K-1
Outline: as §1

EMC-BAC-2 = test system: EMC-BAC-2
Outline: as §1

H3255 = test system: H3255
Outline: as §1

HCC-15 = test system: HCC-15
Outline: as §1

HOP-62 = test system: HOP-62
Outline: as §1

LU99A = test system: LU99A
Outline: as §1

NCI-H1650 = test system: NCI-H1650
Outline: as §1

NCI-H1734 = test system: NCI-H1734
Outline: as §1

NCI-H1944 = test system: NCI-H1944
Outline: as §1

NCI-H2009 = test system: NCI-H2009
Outline: as §1

NCI-H2023 = test system: NCI-H2023
Outline: as §1

NCI-H2347 = test system: NCI-H2347
Outline: as §1

NCI-H23 = test system: NCI-H23
Outline: as §1

NCI-H2405 = test system: NCI-H2405
Outline: as §1

NCI-H358 = test system: NCI-H358
Outline: as §1

NCI-H441 = test system: NCI-H441
Outline: as §1

NCI-H650 = test system: NCI-H650
Outline: as §1

SK-LU-1 = test system: SK-LU-1
Outline: as §1

NCI-H1395 = test system: NCI-H1395
Outline: as §1

`Nc1cccc2c1CN(C1CCC(=O)NC1=O)C2=O` (stereo not drawn) [Lenalidomide] + C[C@@H](Oc1cc(-c2cnn(C3CCNCC3)c2)cnc1N)c1c(Cl)ccc(F)c1Cl [Crizotinib] (partner 1 µM) showed a relative viability (201T; first compound 0.253 µM) of 1.05, a relative viability (201T; first compound 0.8 µM) of 1.02 and a relative viability (201T; first compound 2.53 µM) of 1.04. The relative viability (201T; first compound 8 µM) was 1.05, the relative viability (BEN; first compound 0.253 µM) was 1.04 and the relative viability (BEN; first compound 0.8 µM) was 0.642. The relative viability (BEN; first compound 2.53 µM) was 1.07, the relative viability (BEN; first compound 8 µM) was 0.85 and the relative viability (CAL-12T; first compound 0.253 µM) was 0.617. The relative viability (CAL-12T; first compound 0.8 µM) was 0.587, the relative viability (CAL-12T; first compound 2.53 µM) was 0.692 and the relative viability (CAL-12T; first compound 8 µM) was 0.857. For the same compound, the relative viability (ChaGo-K-1; first compound 0.253 µM) was 1.1, the relative viability (ChaGo-K-1; first compound 2.53 µM) was 1.31 and the relative viability (ChaGo-K-1; first compound 8 µM) was 1.28. It also gave a relative viability (EMC-BAC-2; first compound 0.253 µM) of 0.721, a relative viability (EMC-BAC-2; first compound 0.8 µM) of 0.679 and a relative viability (EMC-BAC-2; first compound 2.53 µM) of 0.815. For the same compound, the relative viability (EMC-BAC-2; first compound 8 µM) was 0.769, the relative viability (H3255; first compound 0.253 µM) was 0.79 and the relative viability (H3255; first compound 0.8 µM) was 0.885. It also gave a relative viability (H3255; first compound 2.53 µM) of 0.872, a relative viability (H3255; first compound 8 µM) of 0.946 and a relative viability (HCC-15; first compound 0.253 µM) of 0.809. It also gave a relative viability (HCC-15; first compound 2.53 µM) of 1.03, a relative viability (HCC-15; first compound 8 µM) of 0.799 and a relative viability (HOP-62; first compound 0.253 µM) of 0.859. For the same compound, the relative viability (HOP-62; first compound 0.8 µM) was 0.507, the relative viability (HOP-62; first compound 2.53 µM) was 0.938 and the relative viability (HOP-62; first compound 8 µM) was 0.74. For the same compound, the relative viability (LU99A; first compound 0.253 µM) was 0.525, the relative viability (LU99A; first compound 0.8 µM) was 0.517 and the relative viability (LU99A; first compound 2.53 µM) was 0.559. For the same compound, the relative viability (LU99A; first compound 8 µM) was 0.54, the relative viability (NCI-H1650; first compound 0.253 µM) was 0.922 and the relative viability (NCI-H1650; first compound 0.8 µM) was 1.03. It also gave a relative viability (NCI-H1650; first compound 2.53 µM) of 1.11, a relative viability (NCI-H1650; first compound 8 µM) of 1.17 and a relative viability (NCI-H1734; first compound 0.253 µM) of 0.622. It also gave a relative viability (NCI-H1734; first compound 0.8 µM) of 0.654, a relative viability (NCI-H1734; first compound 2.53 µM) of 0.618 and a relative viability (NCI-H1734; first compound 8 µM) of 0.597. The relative viability (NCI-H1944; first compound 0.253 µM) was 1.1, the relative viability (NCI-H1944; first compound 0.8 µM) was 1.1 and the relative viability (NCI-H1944; first compound 2.53 µM) was 1.15. For the same compound, the relative viability (NCI-H1944; first compound 8 µM) was 1, the relative viability (NCI-H2009; first compound 0.253 µM) was 1.07 and the relative viability (NCI-H2009; first compound 0.8 µM) was 1.03. The relative viability (NCI-H2009; first compound 2.53 µM) was 1.12, the relative viability (NCI-H2009; first compound 8 µM) was 1.1 and the relative viability (NCI-H2023; first compound 0.253 µM) was 0.661. It also gave a relative viability (NCI-H2023; first compound 0.8 µM) of 0.785, a relative viability (NCI-H2023; first compound 2.53 µM) of 0.675 and a relative viability (NCI-H2023; first compound 8 µM) of 0.596. The relative viability (NCI-H2347; first compound 0.253 µM) was 0.779, the relative viability (NCI-H2347; first compound 0.8 µM) was 0.674 and the relative viability (NCI-H2347; first compound 2.53 µM) was 0.83. For the same compound, the relative viability (NCI-H2347; first compound 8 µM) was 0.573, the relative viability (NCI-H23; first compound 0.253 µM) was 0.521 and the relative viability (NCI-H23; first compound 0.8 µM) was 0.439. The relative viability (NCI-H23; first compound 2.53 µM) was 0.605, the relative viability (NCI-H23; first compound 8 µM) was 0.62 and the relative viability (NCI-H2405; first compound 0.253 µM) was 0.819. It also gave a relative viability (NCI-H2405; first compound 0.8 µM) of 0.858, a relative viability (NCI-H2405; first compound 2.53 µM) of 0.897 and a relative viability (NCI-H2405; first compound 8 µM) of 0.791. The relative viability (NCI-H358; first compound 0.253 µM) was 0.667, the relative viability (NCI-H358; first compound 0.8 µM) was 0.592 and the relative viability (NCI-H358; first compound 2.53 µM) was 0.541. It also gave a relative viability (NCI-H358; first compound 8 µM) of 0.712, a relative viability (NCI-H441; first compound 0.253 µM) of 0.612 and a relative viability (NCI-H441; first compound 0.8 µM) of 0.693. For the same compound, the relative viability (NCI-H441; first compound 2.53 µM) was 0.726, the relative viability (NCI-H441; first compound 8 µM) was 0.778 and the relative viability (NCI-H650; first compound 0.253 µM) was 0.755. It also gave a relative viability (NCI-H650; first compound 2.53 µM) of 0.863, a relative viability (NCI-H650; first compound 8 µM) of 0.809 and a relative viability (SK-LU-1; first compound 0.253 µM) of 1.05. The relative viability (SK-LU-1; first compound 0.8 µM) was 1.06, the relative viability (SK-LU-1; first compound 2.53 µM) was 0.867 and the relative viability (SK-LU-1; first compound 8 µM) was 0.852.
With `Nc1cccc2c1CN(C1CCC(=O)NC1=O)C2=O` (stereo not drawn) [Lenalidomide] + CC1(C)CCC(c2ccc(Cl)cc2)=C(CN2CCN(c3ccc(C(=O)NS(=O)(=O)c4ccc(N[C@H](CCN5CCOCC5)CSc5ccccc5)c(S(=O)(=O)C(F)(F)F)c4)cc3)CC2)C1 [Navitoclax] (partner 0.5 µM) the relative viability (201T; first compound 0.253 µM) was 1.21, the relative viability (201T; first compound 0.8 µM) was 1.22 and the relative viability (201T; first compound 2.53 µM) was 1.19. It also gave a relative viability (201T; first compound 8 µM) of 1.22, a relative viability (BEN; first compound 0.253 µM) of 0.0599 and a relative viability (BEN; first compound 0.8 µM) of 0.0573. For the same compound, the relative viability (BEN; first compound 2.53 µM) was 0.0663, the relative viability (BEN; first compound 8 µM) was 0.0611 and the relative viability (CAL-12T; first compound 0.253 µM) was 1.4. The relative viability (CAL-12T; first compound 0.8 µM) was 1.33, the relative viability (CAL-12T; first compound 2.53 µM) was 1.7 and the relative viability (CAL-12T; first compound 8 µM) was 1.3. It also gave a relative viability (ChaGo-K-1; first compound 0.253 µM) of 1.08, a relative viability (ChaGo-K-1; first compound 2.53 µM) of 1.05 and a relative viability (ChaGo-K-1; first compound 8 µM) of 0.949. It also gave a relative viability (EMC-BAC-2; first compound 0.253 µM) of 1.18, a relative viability (EMC-BAC-2; first compound 0.8 µM) of 1.15 and a relative viability (EMC-BAC-2; first compound 2.53 µM) of 1.33. The relative viability (EMC-BAC-2; first compound 8 µM) was 0.975, the relative viability (H3255; first compound 0.253 µM) was 0.519 and the relative viability (H3255; first compound 0.8 µM) was 0.395. It also gave a relative viability (H3255; first compound 2.53 µM) of 0.589, a relative viability (H3255; first compound 8 µM) of 0.523 and a relative viability (HCC-15; first compound 0.253 µM) of 0.698. The relative viability (HCC-15; first compound 2.53 µM) was 0.814, the relative viability (HCC-15; first compound 8 µM) was 0.676 and the relative viability (HOP-62; first compound 0.253 µM) was 1.07. The relative viability (HOP-62; first compound 0.8 µM) was 0.985, the relative viability (HOP-62; first compound 2.53 µM) was 0.944 and the relative viability (HOP-62; first compound 8 µM) was 1.04. The relative viability (LU99A; first compound 0.253 µM) was 0.853, the relative viability (LU99A; first compound 0.8 µM) was 0.963 and the relative viability (LU99A; first compound 2.53 µM) was 0.925. It also gave a relative viability (LU99A; first compound 8 µM) of 0.502, a relative viability (NCI-H1395; first compound 0.253 µM) of 1.2 and a relative viability (NCI-H1395; first compound 2.53 µM) of 1.31. For the same compound, the relative viability (NCI-H1395; first compound 8 µM) was 0.978, the relative viability (NCI-H1650; first compound 0.253 µM) was 1.06 and the relative viability (NCI-H1650; first compound 0.8 µM) was 1.22. The relative viability (NCI-H1650; first compound 2.53 µM) was 1.4, the relative viability (NCI-H1650; first compound 8 µM) was 1.24 and the relative viability (NCI-H1734; first compound 0.253 µM) was 0.802. For the same compound, the relative viability (NCI-H1734; first compound 0.8 µM) was 0.831, the relative viability (NCI-H1734; first compound 2.53 µM) was 1.01 and the relative viability (NCI-H1734; first compound 8 µM) was 0.796. The relative viability (NCI-H1944; first compound 0.253 µM) was 0.984, the relative viability (NCI-H1944; first compound 0.8 µM) was 1.08 and the relative viability (NCI-H1944; first compound 2.53 µM) was 1.02. The relative viability (NCI-H1944; first compound 8 µM) was 0.873, the relative viability (NCI-H2009; first compound 0.253 µM) was 1.21 and the relative viability (NCI-H2009; first compound 0.8 µM) was 1.26. It also gave a relative viability (NCI-H2009; first compound 2.53 µM) of 1.21, a relative viability (NCI-H2009; first compound 8 µM) of 1.28 and a relative viability (NCI-H2023; first compound 0.253 µM) of 1. For the same compound, the relative viability (NCI-H2023; first compound 0.8 µM) was 1.13, the relative viability (NCI-H2023; first compound 2.53 µM) was 1.05 and the relative viability (NCI-H2023; first compound 8 µM) was 1.01. It also gave a relative viability (NCI-H2347; first compound 0.253 µM) of 0.788, a relative viability (NCI-H2347; first compound 0.8 µM) of 0.747 and a relative viability (NCI-H2347; first compound 2.53 µM) of 0.842. For the same compound, the relative viability (NCI-H2347; first compound 8 µM) was 0.721, the relative viability (NCI-H23; first compound 0.253 µM) was 0.876 and the relative viability (NCI-H23; first compound 0.8 µM) was 0.917. For the same compound, the relative viability (NCI-H23; first compound 2.53 µM) was 0.999, the relative viability (NCI-H23; first compound 8 µM) was 0.649 and the relative viability (NCI-H2405; first compound 0.253 µM) was 0.83. It also gave a relative viability (NCI-H2405; first compound 0.8 µM) of 0.921, a relative viability (NCI-H2405; first compound 2.53 µM) of 0.793 and a relative viability (NCI-H2405; first compound 8 µM) of 0.802. For the same compound, the relative viability (NCI-H441; first compound 0.253 µM) was 0.507, the relative viability (NCI-H441; first compound 0.8 µM) was 0.348 and the relative viability (NCI-H441; first compound 2.53 µM) was 0.52. It also gave a relative viability (NCI-H441; first compound 8 µM) of 0.513, a relative viability (SK-LU-1; first compound 0.253 µM) of 0.729 and a relative viability (SK-LU-1; first compound 0.8 µM) of 0.946. The relative viability (SK-LU-1; first compound 2.53 µM) was 1.45 and the relative viability (SK-LU-1; first compound 8 µM) was 0.924.
